From patent US20090275085A1, “Enzyme for Obtaining Prebiotic Oligosaccharides” (CONSEJO SUPERIOR DE INVESTIGACIONES CIENTIFICAS, priority 2004, published 2009) come the findings set out here.

Series [1] concerns the target X. dendrorhous α-glucosidase (purified enzyme) (Phaffia rhodozyma, UniProt A0A0U2M4R6). The experiment in a line: Kinetic constants of X. dendrorhous α-glucosidase glycosylhydrolase activity. The settings on record: 30 minutes, 100 ng of enzyme; starch supplied by Avebe, 8100 Da. It counts as biochemical, Xanthophyllomyces dendrorhous. Here is the method: The tests were carried out in 30 minutes and with 100 ng of enzyme for each reaction. The molecular weight of the starch, supplied by Avebe, is 8100 Da.

For series [2], the system named is X. dendrorhous extracellular fraction α-glucosidase. Description: α-glucosidase activity of the X. dendrorhous extracellular (cell-free, F-0) fraction on different glucose polymers, glucose release by glucose oxidase-peroxidase. It counts as biochemical, Xanthophyllomyces dendrorhous. The conditions noted are these: X. dendrorhous extracellular fraction (F-0); release of glucose. On the procedure: The production of α-glucosidase activity was analyzed in X. dendrorhous cultures grown in minimal medium for yeasts: 0.7% YNB (Yeast Nitrogen Base w/o Amino acids, DIFCO) (w/v), 2% carbon source. The cultures were carried out in glass flasks incubated at 24° C. and with constant stirring at 160 rpm.
(§1) The cell-free fraction was obtained by centrifugation (F-0) and α-glucosidase activity in this fraction was tested, assessing the release of glucose on different substrates. A […] test and standard methodology were used. The released glucose was quantified using the glucose oxidase-peroxidase coupled reaction: 0.4 ml of the solution to be assessed was mixed with 0.1 ml of A:B solution (20:1) (A: 0.85 U/ml glucose oxidase, 0.40 U/ml peroxidase in sodium phosphate buffer pH 5; B: 0.6% O-dianisidine). It was incubated for 30 minutes at 37° C. and spectrophotometrically quantified at 450 nm. A standard glucose curve (1 to 100 μg/ml) was used. The α-glucosidase activity unit is defined as the amount of enzyme required to release 20 μg/ml of glucose under the described conditions.

The subject of series [3] is X. dendrorhous α-glucosidase, enzyme purified to homogeneity (F-3). The experiment in a line: α-glucosidase (hydrolytic) activity of the X. dendrorhous F-3 fraction on different substrates. The settings on record: F-3 fraction, purified protein, 1% concentration of substrate. It counts as biochemical, Xanthophyllomyces dendrorhous. Here is the method: as §1
The hydrolytic activity of the enzyme purified to homogeneity (F-3) following the described process was tested on different substrates.

Series [4] deals with purified X. dendrorhous enzyme (F-3). The experiment in a line: Glycosyltransferase activity: incubating maltose (240 g/l) with the purified X. dendrorhous enzyme (F-3), HPLC analysis. The series is classed as biochemical, Xanthophyllomyces dendrorhous. The settings on record: for composition of the system: after 288 hours, maltose 240 g/l, 0.7 μg α-glucosidase, pH 5.4, 40° C., 200 rpm; for Composition of the reaction mixture: 240 g maltose/l, 0.2 M sodium acetate pH 5.4, 40° C., 150 rpm. On the procedure: 0.7 μg of α-glucosidase from the pure solution of α-glucosidase corresponding to fraction 3 of TABLE 2 were added. […] Aliquots were extracted at different times and incubated for 5 minutes at 80° C. to inactivate the enzyme. They were diluted to 1:4 (v/v) with water, centrifuged for 5 minutes at 6000 rpm in an Eppendorf tube with a 0.45 μam filter and analyzed by HPLC liquid chromatography.

The test system of the next series is X. dendrorhous MYA-131. Description: Degradation of starch in the medium of an X. dendrorhous culture, quantified with Lugol's iodine. The series is classed as cell-based, Xanthophyllomyces dendrorhous. On the procedure: X. dendrorhous MYA-131 grown in 100 ml of minimal medium with starch (MMS): 0.7% YNB (Yeast Nitrogen Base w/o Amino acids, DiFCO) (w/v), 2% starch (w/v), DIFCO) was cultured to produce α-glucosidase, and the culture continued for 150 hours. Cell growth was carried out and assessed as in the previous example. The stationary phase was reached after 75 hours of growth, at 3.4 ODU660. The cell-free fraction was obtained every 5-7 hours as in EXAMPLE 1.
To that end, 0.05 ml of the cell-free fraction was mixed with 0.05 ml of 50 mM sodium phosphate buffer, pH 5.5 0.1 ml of Lugol's iodine and 2.5 ml of water were added to 0.025 ml of this mixture. The polysaccharide was spectrophotometrically quantified at 595 nm using a standard starch curve (1-10 mg/ml). The 100% starch value was that assessed in the initial culture medium which was used to carry out the inoculum. By using this methodology, a decrease of the starch in the extracellular medium for the first 30 hours of culture was not observed. 10, 20, 40 and 60% reductions of the polysaccharide concentration were obtained at 50, 60, 70 and 80 hours of culture, respectively. The last value, 60%, remained constant during prolonged growths of up to 300 hours.

Substrate in series [5]: OC[C@H]1O[C@H](O[C@H]2[C@H](O)[C@@H](O)[C@@H](O[C@H]3[C@H](O)[C@@H](O)C(O)O[C@@H]3CO)O[C@@H]2CO)[C@H](O)[C@@H](O)[C@@H]1O
Description: purified protein, by the assay type. The conditions noted are these: other: 30 minutes, 100 ng of enzyme; starch supplied by Avebe, 8100 Da.

Substrate in series [6]: OC[C@H]1O[C@H](O[C@H]2[C@H](O)[C@@H](O)[C@@H](O[C@H]3[C@H](O)[C@@H](O)[C@@H](O[C@H]4[C@H](O)[C@@H](O)[C@@H](O[C@H]5[C@H](O)[C@@H](O)[C@@H](O[C@H]6[C@H](O)[C@@H](O)[C@@H](O[C@H]7[C@H](O)[C@@H](O)C(O)O[C@@H]7CO)O[C@@H]6CO)O[C@@H]5CO)O[C@@H]4CO)O[C@@H]3CO)O[C@@H]2CO)[C@H](O)[C@@H](O)[C@@H]1O
The experiment in a line: Kinetic constants of X. dendrorhous α-glucosidase glycosylhydrolase activity. The series is classed as biochemical, Xanthophyllomyces dendrorhous. The settings on record: other: 30 minutes, 100 ng of enzyme; starch supplied by Avebe, 8100 Da.

As usually defined, the Km is the substrate concentration at which the rate is half of its maximum. Usually kcat stands for the number of substrate molecules converted per active site and unit of time at saturation. What is called kcat/Km is the second-order rate constant that governs catalysis at low substrate concentration.

In the case of `OC[C@H]1O[C@H](O[C@H]2[C@H](O)[C@@H](O)[C@@H](O[C@H]3[C@H](O)[C@@H](O)[C@@H](O[C@H]4[C@H](O)[C@@H](O)[C@@H](O[C@H]5[C@H](O)[C@@H](O)[C@@H](O[C@H]6[C@H](O)[C@@H](O)[C@@H](O[C@H]7[C@H](O)[C@@H](O)C(O)O[C@@H]7CO)O[C@@H]6CO)O[C@@H]5CO)O[C@@H]4CO)O[C@@H]3CO)O[C@@H]2CO)[C@H](O)[C@@H](O)[C@@H]1O` (stereo partly drawn) [maltoheptose], the Vmax in series [1] was found to be 15 μg glucose min^−1. Besides, the Specific activity is 24 U/μg in series [2] and 997 U/μg in series [3].

In the case of `OC[C@H]1O[C@H](O[C@H]2[C@H](O)[C@@H](O)[C@@H](O[C@H]3[C@H](O)[C@@H](O)C(O)O[C@@H]3CO)O[C@@H]2CO)[C@H](O)[C@@H](O)[C@@H]1O` (stereo partly drawn) [maltotriose], the Vmax in series [1] amounted to 12 μg glucose min^−1. The “composition of the system” value in series [4] worked out at 35.9 g/L. The “Composition of the reaction mixture” value is 26.3 grams/liter in series [4] (reaction time 27 h); 42.6 grams/liter in series [4] (reaction time 117 h); 42.8 grams/liter in series [4] (reaction time 143 h); 39.3 grams/liter in series [4] (reaction time 216 h); 35.9 grams/liter in series [4] (reaction time 288 h). Further, the Specific activity in series [2] is on record as 18 U/μg; in series [3], 647 U/μg.

maltose: in series [1], the Vmax was determined as 23 μg glucose min^−1. Besides, in series [4], the “composition of the system” value amounted to 69.2 g/L. Further, the “Composition of the reaction mixture” value in series [4] (reaction time 27 h) stood at 183.4 grams/liter; in series [4] (reaction time 117 h), 103.0 grams/liter; in series [4] (reaction time 143 h), 94.4 grams/liter; in series [4] (reaction time 216 h) it was 78.1 grams/liter; in series [4] (reaction time 288 h), 69.2 grams/liter. The Specific activity in series [2] was 30 U/μg; in series [3] it was 1172 U/μg.

As for starch, in series [1], the Kcat worked out at 1.43 s⁻¹. Besides, the Km in series [1] was determined as 880 µM. Moreover, in series [1], the Vmax is 4.29 μg glucose min^−1. The “reduction of the polysaccharide concentration” value was determined as 10% with X. dendrorhous MYA-131 (50 hours of culture); 20% in the series on X. dendrorhous MYA-131 (60 hours of culture); 40% in the series with X. dendrorhous MYA-131 (70 hours of culture); 60% in the series on X. dendrorhous MYA-131 (80 hours of culture, remained constant up to 300 hours). For the same molecule, in the series with X. dendrorhous MYA-131 (first 30 hours of culture), the “decrease of the starch in the extracellular medium” value is given as “not observed”. Besides, in series [2], the Specific activity was 23 U/μg.

B1: X. dendrorhous α-glucosidase (purified enzyme) (Phaffia rhodozyma) (protein)
chain: SSPSSFQGPSELLSNQKRYSKRDNTGSYSLNTTACGGYSVSSVDSTGNGLQAHLSLNGEPCRAFGVDYTDLLVDVEYQTQERIRVHIYDADKIEFQVPENIFPKPQSDNGLDLNQTDLVFNHQENPFAFWITRRNASDDETPIFDTRPSSKTSVDYPIEPPYGGVEKVNSSTAVPDESGGLVFEAGYLEISSFLPKDANIFGLGEVVATSGFRRNSSATVQTMWARDVGDPENQNMYGDHPIYIETRFNKNGASSSHGVFLLNSEGMDIVLRDEVIEYRPLGGSLDFYFISGPTPIKVIEQYSEISGRSLLHPYWSYGFHLCRWGYDNITQNREIVQSMKDANLPLETFWNDIDWMDTYRNFVPAPNRFEPADYKAFVDELHANNQHYIPIIDAAIGVVTNDTDVYDTFTAGDAANTYIKNPDGSNYIGKVWPGYTVFPDWFQNSTQDWWTEAFINYSQIVEFDGIWIDMNEPSSFCEGSCGSSADLNNITPPFLLPGQPGAVTLIDGTFPEGYNATLWGYSGNLTINGSLTFNSTPPNYGRPDRRSQLSRRVGQGVDVNTPAYEIHNALDKLAISTVSPNATHLNGDIQDIDVHNLFGYMEGIATFNVWNTYKPNKRPFIVSRSTFPGAGTKVAHWLGDNYSTWKYLRYVNQGVLQFQIYGIPMVGADTCGFAGNTDEELCNRWMQLAAFYPFFRNHNIKSALAQEPFRWDSVAEATRNATAIRYALLPYWYTLFYQASSVGTPPIRALFYEFDQEELLSVDAQFLVGRNVLVTGAMYPNITSVEGYLPGGDDEIWRDWYTHEVIKPTSDDGKYDFPAPLGHIPVTIRSGAIFLLHSEPGMTVYDTRESPYSILVSLDKSSEAEGYAFIDDGESFPVTDSREVHLGAAEGKVYGWTSGSYNVGQKLAQVTVLGVKTEPSTVTFNGQAITTGWTYEADLERFVVTGLQGDLNGGWELDWA
For B1, in series [5], the Km worked out at 550 µM, the kcat turned out to be 4 s⁻¹ and the kcat/Km was determined as 7270 M⁻¹ s⁻¹. Moreover, in series [6], the Km was 860 µM, the kcat worked out at 5 s⁻¹ and the catalytic efficiency (kcat/Km) was determined as 5800 M⁻¹ s⁻¹.
